These results are taken from patent US20260265262A1, “CDK2 INHIBITORS AND METHODS OF USING THE SAME” (Cedilla Therapeutics, Inc., priority 2022, published 2026).

For one test, the system named is Kuramochi cells. The experiment in a line: IncuCyte cell proliferation assay. The conditions noted are these: Kuramochi cells labeled with mApple-H2B, cell count 0 to 72 hours, 20 μM top concentration; read-out: IncuCyte Kuramochi RB-WT: IC50. The test is classed as cell-based. The method in brief:
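Kuramochi cells expressing mApple-H2B were treated with a 10-point, ½-log dilution series (top 20 μM). Fluorescent nuclei were counted by IncuCyte imaging at 0 and 72 h. The fold change in cell count was normalized to DMSO wells and fitted to dose-response curves to give […].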

The next test has as its target CDK2/Cyclin E1 (Homo sapiens, UniProt P24941). The experiment in a line: ADP-Glo Luminescent Kinase Assay (CDK2/E1-37C). The test is classed as biochemical. The following applies: 0.18 nM CDK2/Cyclin E1, 100 μM ATP, 1.5 μM Histone H1, 37° C., 60 min pre-incubation; read-out: ADPGLO (CDK2/E1-37C): IC50. The method in brief:
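Human CDK2/Cyclin E1 preincubated with inhibitor 60 min at 37 °C, then reacted 90 min at 37 °C with final 0.18 nM enzyme, 100 μM ATP, 1.5 μM Histone H1 in HEPES pH 7.5 buffer. ADP formed read by ADP-Glo luminescence; IC50 from four-parameter fit.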
(ADP-Glo turns the ADP formed in a reaction into a luminescent signal.)

Take `C[C@@H](OCC12CCC(CC1)OC2)[C@H](NC(=O)[C@@H]1CN(C(=O)c2cnn(Cc3ccc(C(F)(F)F)cc3)c2)CC12CN(C(=O)C1(C(F)(F)F)CC1)C2)C(=O)N1CCC(c2nnn[nH]2)CC1` [Example I-100]: the IC50 in the test with Kuramochi cells was greater than 20 µM; on CDK2/Cyclin E1, less than 0.5 µM.
With `COC(=O)CCNC(=O)[C@@H](NC(=O)[C@@H]1CN(C(=O)c2cnn(Cc3ccc(F)cc3)c2)CC12CN(C(=O)C1(C(F)(F)F)CC1)C2)[C@@H](C)OCC12CCC(CC1)OC2` [Example I-111, Methyl 3-((2S,3R)-3-((2-oxabicyclo[2.2.2]octan-4-yl)methoxy)-2-((S)-6-(1-(4-fluorobenzyl)-1H-pyrazole-4-carbonyl)-2-(1-(trifluoromethyl)cyclopropane-1-carbonyl)-2,6-diazaspiro[3.4]octane-8-carboxamido)butanamido)propanoate], the IC50 was greater than 20 µM in the test on Kuramochi cells and less than 0.5 µM on CDK2/Cyclin E1.
For `C[C@@H](OCC12CCC(CC1)OC2)[C@H](NC(=O)[C@@H]1CN(C(=O)c2cnn(Cc3ccccc3C(=O)O)c2)CC12CN(C(=O)C1(C(F)(F)F)CC1)C2)C(=O)N1CCC(c2nccs2)CC1` [Example I-88, 2-((4-((S)-8-(((2S,3R)-3-(2-oxabicyclo[2.2.2]octan-4-ylmethoxy)-1-oxo-1-(4-(thiazol-2-yl)piperidin-1-yl)butan-2-yl)carbamoyl)-2-(1-(trifluoromethyl)cyclopropanecarbonyl)-2,6-diazaspiro[3.4]octane-6-carbonyl)-1H-pyrazol-1-yl)methyl)benzoic acid] the same measures were greater than 20 µM and less than 0.5 µM.
For `C[C@@H](OCC1CCCCC1)[C@H](NC(=O)[C@@H]1CN(C(=O)c2cnn(Cc3ccccc3)c2)CC12CN(C(=O)[C@H]1CC1(C)C)C2)C(=O)N1CCCC[C@H]1C(=O)O` [Example I-36, (S)-1-(N—((S)-6-(1-benzyl-1H-pyrazole-4-carbonyl)-2-((S)-2,2-dimethylcyclopropane-1-carbonyl)-2,6-diazaspiro[3.4]octane-8-carbonyl)-O-(cyclohexylmethyl)-L-threonyl)piperidine-2-carboxylic acid] the same measures were greater than 20 µM and less than 0.5 µM.
`C[C@@H](OCC12CCC(CC1)OC2)[C@H](NC(=O)[C@@H]1CN(C(=O)c2cnn(CC3CCNCC3)c2)CC12CN(C(=O)C1(C(F)(F)F)CC1)C2)C(=O)N1CCC(c2ccccc2C(=O)O)CC1` [Example I-101]: the IC50 in the test on Kuramochi cells was greater than 20 µM; at CDK2/Cyclin E1, 0.5 to 5 µM.
As to `C[C@@H](OCC1(C(F)(F)F)CC1)[C@H](NC(=O)[C@@H]1CN(C(=O)c2cnn(Cc3ccc(C(F)(F)F)cc3)c2)CC12CN(C(=O)C1(C(F)(F)F)CC1)C2)C(=O)N1CCC(c2ccc(C(=O)O)cc2)CC1` [Example I-68, 4-(1-(N—((S)-6-(1-(4-(trifluoromethyl)benzyl)-1H-pyrazole-4-carbonyl)-2-(1-(trifluoromethyl)cyclopropane-1-carbonyl)-2,6-diazaspiro[3.4]octane-8-carbonyl)-O-((1-(trifluoromethyl)cyclopropyl)methyl)-L-threonyl)piperidin-4-yl)benzoic acid], the IC50 is greater than 20 µM in the test with Kuramochi cells and 0.5 to 5 µM on CDK2/Cyclin E1.
Regarding `CC1(C)C[C@@H]1C(=O)N1CC2(CN(C(=O)c3cncs3)C[C@H]2C(=O)N2CCC[C@@H](N(CC(=O)NS(C)(=O)=O)CC3CCCCC3)C2)C1` [Example I-70, 2-((cyclohexylmethyl)((R)-1-((S)-2-((S)-2,2-dimethylcyclopropane-1-carbonyl)-6-(thiazole-5-carbonyl)-2,6-diazaspiro[3.4]octane-8-carbonyl)piperidin-3-yl)amino)-N-(methylsulfonyl)acetamide], the IC50 in the test with Kuramochi cells was greater than 20 µM; at CDK2/Cyclin E1, greater than 10 µM.
In the case of `C=CCOC(=O)N1CCC2(CC1)CCN(C(=O)[C@@H](NC(=O)[C@@H]1CN(C(=O)c3cnn(Cc4ccccc4C(=O)O)c3)CC13CN(C(=O)C1(C(F)(F)F)CC1)C3)[C@@H](C)OCC13CCC(CC1)OC3)CC2` [Example I-7, 2-((4-((S)-8-(((2S,3R)-3-((2-oxabicyclo[2.2.2]octan-4-yl)methoxy)-1-(9-((allyloxy)carbonyl)-3,9-diazaspiro[5.5]undecan-3-yl)-1-oxobutan-2-yl)carbamoyl)-2-(1-(trifluoromethyl)cyclopropane-1-carbonyl)-2,6-diazaspiro[3.4]octane-6-carbonyl)-1H-pyrazol-1-yl)methyl)benzoic acid], the IC50 was greater than 20 µM in the test on Kuramochi cells and less than 0.5 µM at CDK2/Cyclin E1.
For the compound `C[C@@H](OCC12CCC(CC1)OC2)[C@H](NC(=O)[C@H]1CN(C(=O)c2cnc(O)cn2)CC12CN(C(=O)C1(C(F)(F)F)CC1)C2)C(=O)N1CCC(c2ccc(C(=O)O)c(C(F)(F)F)c2)CC1` (single isomer, unassigned) [I-89 2nd, 4-(1-(O-((2-oxabicyclo[2.2.2]octan-4-yl)methyl)-N-(6-(5-hydroxypyrazine-2-carbonyl)-2-(1-(trifluoromethyl)cyclopropane-1-carbonyl)-2,6-diazaspiro[3.4]octane-8-carbonyl)-L-threonyl)piperidin-4-yl)-2-(trifluoromethyl)benzoic acid], the figures for the IC50 with Kuramochi cells and on CDK2/Cyclin E1 were greater than 20 µM and 0.5 to 5 µM, respectively.
Take `COC(=O)c1ccc([C@@H](COCC23CCC(CC2)OC3)NC(=O)C2CN(C(=O)c3cnn(Cc4ccc(C#N)cc4)c3)CC23CN(C(=O)C2(C(F)(F)F)CC2)C3)cc1` (stereo partly drawn) [Example I-20]: the IC50 is greater than 20 µM in the test with Kuramochi cells and 5 to 10 µM at CDK2/Cyclin E1.
For the compound `C[C@@H](OCC12CCC(CC1)OC2)[C@H](NC(=O)[C@@H]1CN(C(=O)c2cnn(Cc3ccccc3C(=O)O)c2)CC12CN(C(=O)C1(C(F)(F)F)CC1)C2)C(=O)N1CCNCC1` [Example I-109], the IC50 is greater than 20 µM with Kuramochi cells and less than 0.5 µM at CDK2/Cyclin E1.
In the case of `N#Cc1ccc(Cn2cc(C(=O)N3CC(C(=O)N[C@@H](COCC45CCC(CC4)OC5)c4ccc(C(=O)O)cc4)C4(C3)CN(C(=O)C3(C(F)(F)F)CC3)C4)cn2)cc1` (stereo partly drawn) [Example I-23, 4-((1R)-2-((2-oxabicyclo[2.2.2]octan-4-yl)methoxy)-1-(6-(1-(4-cyanobenzyl)-1H-pyrazole-4-carbonyl)-2-(1-(trifluoromethyl)cyclopropane-1-carbonyl)-2,6-diazaspiro[3.4]octane-8-carboxamido)ethyl)benzoic acid], the IC50 is greater than 20 µM with Kuramochi cells and greater than 10 µM on CDK2/Cyclin E1.
As for `C[C@@H](OCC12CCC(CC1)OC2)[C@H](NC(=O)[C@@H]1CN(C(=O)c2cnn(Cc3ccc(C(F)(F)F)cc3)c2)CC12CN(C(=O)C1(C(F)(F)F)CC1)C2)C(=O)N1CCC(c2ccc(C(=O)O)c(O)c2)CC1` [Example I-81, 4-(1-(O-((2-Oxabicyclo[2.2.2]octan-4-yl)methyl)-N—((S)-6-(1-(4-(trifluoromethyl)benzyl)-1H-pyrazole-4-carbonyl)-2-(1-(trifluoromethyl)cyclopropane-1-carbonyl)-2,6-diazaspiro[3.4]octane-8-carbonyl)-L-threonyl)piperidin-4-yl)-2-hydroxybenzoic acid], the IC50 with Kuramochi cells is greater than 20 µM; on CDK2/Cyclin E1 it was less than 0.5 µM.
As for `C[C@@H](OCC1CCCCC1)[C@H](NC(=O)[C@@H]1CN(C(=O)c2cnn(CC3CCCCC3)c2)CC12CN(C(=O)[C@H]1CC1(C)C)C2)C(=O)N1CCC(c2ccc(C(=O)O)cc2)CC1` [Example I-30, 4-(1-(O-(cyclohexylmethyl)-N—((S)-6-(1-(cyclohexylmethyl)-1H-pyrazole-4-carbonyl)-2-((S)-2,2-dimethylcyclopropane-1-carbonyl)-2,6-diazaspiro[3.4]octane-8-carbonyl)-L-threonyl)piperidin-4-yl)benzoic acid], the values for the IC50 in the test on Kuramochi cells and at CDK2/Cyclin E1 were 0.5 to 5 µM and less than 0.5 µM, respectively.
For `C[C@@H](OCC12CCC(CC1)OC2)[C@H](NC(=O)[C@@H]1CN(C(=O)c2cnn(Cc3ccc(C(F)(F)F)cc3)c2)CC12CN(C(=O)C1(C(F)(F)F)CC1)C2)C(=O)N1CCC(c2cc(F)c(C(=O)O)c(F)c2)CC1` [Example I-94] the same measures were greater than 20 µM and less than 0.5 µM.
For `C[C@@H](OCC12CCC(CC1)OC2)[C@H](NC(=O)[C@@H]1CN(C(=O)c2cnn(Cc3ccc(C(F)(F)F)cc3)c2)CC12CN(C(=O)C1(C(F)(F)F)CC1)C2)C(=O)N1CCC(c2nccs2)CC1` [Example I-91, (S)—N-((2S,3R)-3-(2-oxabicyclo[2.2.2]octan-4-ylmethoxy)-1-oxo-1-(4-(thiazol-2-yl)piperidin-1-yl)butan-2-yl)-6-(1-(4-(trifluoromethyl)benzyl)-1H-pyrazole-4-carbonyl)-2-(1-(trifluoromethyl)cyclopropanecarbonyl)-2,6-diazaspiro[3.4]octane-8-carboxamide] the same measures were 0.5 to 5 µM and less than 0.5 µM.
For `N#Cc1ccc(Cn2cc(C(=O)N3CC(C(=O)N[C@H](COCC45CCC(CC4)OC5)c4ccc(C(=O)O)cc4)C4(C3)CN(C(=O)C3(C(F)(F)F)CC3)C4)cn2)cc1` (stereo partly drawn) [Example I-19], the IC50 with Kuramochi cells was greater than 20 µM; on CDK2/Cyclin E1 it was greater than 10 µM.
Take `COC(=O)c1ccc(C2CCN(C(=O)[C@@H](NC(=O)[C@@H]3CN(C(=O)c4cnn(Cc5ccc(C(F)(F)F)cc5)c4)CC34CN(C(=O)C3(C(F)(F)F)CC3)C4)[C@@H](C)OCC34CCC(CC3)OC4)CC2)cc1` [Example I-13]: the IC50 is 0.5 to 5 µM in the test on Kuramochi cells and less than 0.5 µM at CDK2/Cyclin E1.
